Patent US6897304B2, “Cephem compounds and ESBL-detecting reagents containing the same” (Zenyaku Kogyo Kabushiki Kaisha, priority 2000, dated 2005)

Key:
Conditions in all cases: 50 μl of 1 U/ml enzyme, 10 minutes
PCase (PCase Type I) = assay: Paper disk colour-change test, reactivity against β-lactamases (PCase); type: biochemical, B. cereus; set-up: key: −: negative; +: positive; ++: highly positive
Experimental: (§1) Each of the test compounds is dissolved in dimethyl sulfoxide. Paper disks with a diameter of 8 mm containing the test compounds in an amount of 5 or 25 μg per disk were prepared and dried in air. Each of these disks was added dropwise with a solution of β-lactamases (50 μl) prepared to a concentration of 1 U/ml with distilled water and allowed for 10 minutes.
(§2) PCase is an enzyme isolated from B. cereus (production of Sigma Chemical Co. :PCase Type I); and CEPase, from E. cloacae (production of Sigma chemical Co. :CEPase Type IV).

CEPase (CEPase Type IV) = target: T1, CEPase (CEPase Type IV) (Enterobacter cloacae, UniProt P05364); assay: Paper disk colour-change test, reactivity against β-lactamases (CEPase); type: biochemical, E. cloacae; set-up: key: −: negative; +: positive; ++: highly positive
T1 construct: purchased Sigma chemical Co. CEPase Type IV; host or cells: isolated from E. cloacae
Experimental: as §1, §2

ESBL = assay: Paper disk colour-change test, reactivity against β-lactamases (ESBL); type: biochemical; set-up: key to Reactivity against β-lactamases: ESBL: −: negative; +: positive; ++: highly positive
Experimental: as §1

T1 sequence (P05364 21-381): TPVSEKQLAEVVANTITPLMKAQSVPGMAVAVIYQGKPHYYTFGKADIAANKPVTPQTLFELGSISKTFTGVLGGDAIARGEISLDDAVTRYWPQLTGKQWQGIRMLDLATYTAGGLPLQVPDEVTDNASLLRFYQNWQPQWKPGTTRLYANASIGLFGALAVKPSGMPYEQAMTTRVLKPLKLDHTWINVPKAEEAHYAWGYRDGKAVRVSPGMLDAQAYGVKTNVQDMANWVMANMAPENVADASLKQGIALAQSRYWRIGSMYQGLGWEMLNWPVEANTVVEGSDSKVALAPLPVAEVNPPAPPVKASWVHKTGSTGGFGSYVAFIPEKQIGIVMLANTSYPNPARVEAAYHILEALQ

CC(C)(ON=C(C(=O)NC1C(=O)N2C(C(=O)O)=C(C=Cc3ccc([N+](=O)[O-])cc3[N+](=O)[O-])CS[C@H]12)c1csc(N)n1)C(=O)O (stereo partly shown) [compound 1, 7-[2-(2-aminothiazol-4-yl)-2-(1-carboxy-1-methylethoxyimino)acetamido]-3-(2,4-dinitrostyryl)-3-cephem-4-carboxylic acid]
Reactivity against β-lactamases: PCase (PCase (PCase Type I); content 5 μg/disk): − | Reactivity against β-lactamases: CEPase (CEPase (CEPase Type IV); content 5 μg/disk): − | Reactivity against β-lactamases: ESBL (ESBL; content 5 μg/disk): ++ | color change (ESBL; content 5 μg/disk): pale yellow → red

CC(C)(ON=C(C(=O)NC1C(=O)N2C(C(=O)O)=C(C=Cc3ccc([N+](=O)[O-])cc3)CS[C@H]12)c1csc(N)n1)C(=O)O (stereo partly shown) [compound 2, 7-[2-(2-aminothiazol-4-yl)-2-(1-carboxy-1-methylethoxyimino)acetamido]-3-(4-nitrostyryl)-3-cephem-4-carboxylic acid]
Reactivity against β-lactamases: PCase (PCase (PCase Type I); content 5 μg/disk): − | Reactivity against β-lactamases: CEPase (CEPase (CEPase Type IV); content 5 μg/disk): − | Reactivity against β-lactamases: ESBL (ESBL; content 5 μg/disk): + | color change (ESBL; content 5 μg/disk): pale yellow → orange

CC(C)(ON=C(C(=O)NC1C(=O)N2C(C(=O)O)=C(C=Cc3ccc(C#N)cc3)CS[C@H]12)c1csc(N)n1)C(=O)O (stereo partly shown) [compound 3, 7-[2-(2-aminothiazol-4-yl)-2-(1-carboxy-1-methylethoxyimino)acetamido]-3-(4-cyanostyryl)-3-cephem-4-carboxylic acid]
Reactivity against β-lactamases: PCase (PCase (PCase Type I); content 25 μg/disk): − | Reactivity against β-lactamases: CEPase (CEPase (CEPase Type IV); content 25 μg/disk): − | Reactivity against β-lactamases: ESBL (ESBL; content 25 μg/disk): + | color change (ESBL; content 25 μg/disk): pale yellow → golden

CON=C(C(=O)NC1C(=O)N2C(C(=O)O)=C(C=Cc3ccc([N+](=O)[O-])cc3)CS[C@H]12)c1csc(N)n1 (stereo partly shown) [compound 4, 7-[2-(2-aminothiazol-4-yl)-2-methoxyiminoacetamido]-3-(4-nitrostyryl)-3-cephem-4-carboxylic acid]
Reactivity against β-lactamases: PCase (PCase (PCase Type I); content 5 μg/disk): − | Reactivity against β-lactamases: CEPase (CEPase (CEPase Type IV); content 5 μg/disk): − | Reactivity against β-lactamases: ESBL (ESBL; content 5 μg/disk): ++ | color change (ESBL; content 5 μg/disk): pale yellow → orange

Nc1nc(C(=NOCC(=O)O)C(=O)NC2C(=O)N3C(C(=O)O)=C(C=Cc4ccc([N+](=O)[O-])cc4[N+](=O)[O-])CS[C@H]23)cs1 (stereo partly shown) [compound 5, 7-[2-(2-aminothiazol-4-yl)-2-carboxymethoxyiminoacetamido]-3-(2,4-dinitrostyryl)-3-cephem-4-carboxylic acid]
Reactivity against β-lactamases: PCase (PCase (PCase Type I); content 5 μg/disk): − | Reactivity against β-lactamases: CEPase (CEPase (CEPase Type IV); content 5 μg/disk): − | Reactivity against β-lactamases: ESBL (ESBL; content 5 μg/disk): ++ | color change (ESBL; content 5 μg/disk): pale yellow → red

Nc1nc(C(=NOCC(=O)O)C(=O)NC2C(=O)N3C(C(=O)O)=C(C=Cc4ccc([N+](=O)[O-])cc4)CS[C@H]23)cs1 (stereo partly shown) [compound 6, 7-[2-(2-aminothiazol-4-yl)-2-carboxymethoxyiminoacetamido]-3-(4-nitrostyryl)-3-cephem-4-carboxylic acid]
Reactivity against β-lactamases: PCase (PCase (PCase Type I); content 5 μg/disk): − | Reactivity against β-lactamases: CEPase (CEPase (CEPase Type IV); content 5 μg/disk): − | Reactivity against β-lactamases: ESBL (ESBL; content 5 μg/disk): ++ | color change (ESBL; content 5 μg/disk): pale yellow → orange

O=C(Cc1cccs1)NC1C(=O)N2C(C(=O)O)=C(C=Cc3ccc([N+](=O)[O-])cc3[N+](=O)[O-])CS[C@H]12 (stereo partly shown) [compound A, 3-(2,4-dinitrostyryl)-7-(2-thienylacetamido)-3-cephem-4-carboxylic acid, reference compound]
Reactivity against β-lactamases: PCase (PCase (PCase Type I); content 5 μg/disk): ++ | Reactivity against β-lactamases: CEPase (CEPase (CEPase Type IV); content 5 μg/disk): ++ | Reactivity against β-lactamases: ESBL (ESBL; content 5 μg/disk): ++ | color change (ESBL; content 5 μg/disk): pale yellow → red
